According to patent US20090304825A1, “ESTROGENIC EXTRACTS FOR USE IN TREATING VAGINAL AND VULVAR ATROPHY” (Bionovo, Inc., priority 2008, published 2009):

Columns and labels:
[1] = test system: either receptor (ERα, ERβ); assay: Antagonistic effect on estrogen receptors (method not described); assay type: cell-based
[2] = target: estrogen receptor beta (ERβ) (Homo sapiens, UniProt Q92731); assay: Estrogen receptor subtype transcriptional activation (studies, method not described); assay type: cell-based; settings: "Studies have shown"
[3] = target: T1, ERβ (Homo sapiens, UniProt Q92731); settings: in the presence of ERβ
[4] = test system: TNF-RE tkLuc; assay: Antiestrogen effect on TNF-RE tkLuc; assay type: cell-based; settings: for effect on the repression induced by E2: TNF-RE tkLuc; for activation of TNF-RE tkLuc: antiestrogens, in contrast to E2
Text: […]. […] […].

[5] = target: T1, ERβ; assay: ERE-tk-Luc activation in U2OS osteosarcoma cells co-transfected with ERβ; assay type: cell-based; design: expressed in transfected cells; host or cells: U2OS osteosarcoma cells
Text: FIGS. 1A-1C. […] (Amarathaceae).

[6] = test system: both estrogen receptor subtypes; assay: Binding to estrogen receptor subtypes (method not described); settings: "Studies have shown"
[7] = several small randomized trials; cited from earlier work
[8] = test system: oopherectomized mice; assay: Intra-vaginal administration to oopherectomized mice, vaginal and endometrial histology; assay type: in vivo
Text: The glands form back to back without intervening stroma. […] In one area, the glands arise in what appears to be a polyp with a broad stalk and thick fibrovascular core.

T1 sequence (Q92731 whole entry): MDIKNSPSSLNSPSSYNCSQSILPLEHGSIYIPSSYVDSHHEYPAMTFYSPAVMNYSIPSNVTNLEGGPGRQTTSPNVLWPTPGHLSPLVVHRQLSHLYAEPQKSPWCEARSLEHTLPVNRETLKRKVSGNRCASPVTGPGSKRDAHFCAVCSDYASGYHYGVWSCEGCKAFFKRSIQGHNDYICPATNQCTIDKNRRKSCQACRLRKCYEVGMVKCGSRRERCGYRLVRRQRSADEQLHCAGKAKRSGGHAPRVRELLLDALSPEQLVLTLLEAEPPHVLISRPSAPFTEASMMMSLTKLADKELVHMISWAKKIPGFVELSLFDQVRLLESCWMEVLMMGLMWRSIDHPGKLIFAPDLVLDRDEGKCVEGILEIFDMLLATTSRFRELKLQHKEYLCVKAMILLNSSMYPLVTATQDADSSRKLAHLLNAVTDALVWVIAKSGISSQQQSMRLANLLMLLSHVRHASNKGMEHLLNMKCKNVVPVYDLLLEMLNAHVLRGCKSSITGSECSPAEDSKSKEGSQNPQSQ
estrogen receptor beta (ERβ), sequence (Q92731 whole entry): as above

| ER subtype transcriptional activation [2] | Molecule | antagonistic effect on either receptor [1] | effect on the repression induced by E2 [4] | activation of TNF-RE tkLuc [4] [fold] | other results |
| --- | --- | --- | --- | --- | --- |
| ERβ selective transcriptional activation | COc1ccc(-c2coc3cc(O)ccc3c2=O)cc1O [Calycosin] | does not have an antagonistic effect on either receptor | – | – | – |
| – | C[C@]12CC[C@@H]3c4ccc(O)cc4CC[C@H]3[C@@H]1CC[C@@H]2O [E2, estradiol] | – | – | – | repression of TNF-α activation of TNF-RE tkLuc [3]: 60-80% |
| – | C[C@]12CC[C@@H]3c4ccc(O)cc4C[C@@H](CCCCCCCCC[S+]([O-])CCCC(F)(F)C(F)(F)F)[C@H]3[C@@H]1CC[C@@H]2O (some centres unmarked) [ICI 182, 780] | – | abolished the repression induced by E2 | 2 | – |
| ERβ transcriptional activation only | C=CC(/C=C\c1ccc(O)cc1)c1ccc(O)cc1 (centres unmarked) [Nyasol] | does not have an antagonistic effect on either receptor | – | – | activation of ERE-tk-Luc relative to estradiol (E2) ([5]; compared with 10 nM E2): activation equivalent to 10 nM estradiol; activation in the presence of ER antagonists ([5]; raloxifene (Ral), tamoxifen (Tam), b208 also ICI 182, 780): blocked the activation; binding affinity to estrogen receptor subtypes [6]: binds with equal affinity to both estrogen receptor subtypes |
| – | Oc1ccc2c(c1)CC[C@H](c1ccccc1)[C@@H]2c1ccc(OCCN2CCCC2)cc1 [lasofoxifene] | – | – | – | vaginal maturation indices and vaginal pH relative to placebo [7]: improvements in vaginal maturation indices and vaginal pH |
| – | O=C(c1ccc(OCCN2CCCCC2)cc1)c1c(-c2ccc(O)cc2)sc2cc(O)ccc12 [raloxifene] | – | abolished the repression induced by E2 | 2 | antagonist effect on the activation by herbal extracts and active ingredients in VG101 ([5]; ERE-tk-Luc): blocked the activation |
| – | CC/C(=C(\c1ccccc1)c1ccc(OCCN(C)C)cc1)c1ccccc1 [tamoxifen] | – | abolished the repression induced by E2 | 2 | – |
| – | estrogen | – | – | – | endometrium histology ([8]; mouse model, compared to controls): endomyometrium (the equivalent of complex atypical hyperplasia in women, worrisome for in situ carcinoma); vaginal epithelium histology ([8]; oopherectomized mice, intra-vaginal, VG101 0.5 mg/day for 10 days): squamous epithelium with hyperkeratosis |

| Molecule | ER subtype transcriptional activation [2] | antagonistic effect on either receptor [1] | effect on the repression induced by E2 [4] | activation of TNF-RE tkLuc [4] [fold] | other results |
| --- | --- | --- | --- | --- | --- |
| COc1c(O)cc2c(=O)c3c(oc2c1O)oc1c(O)cccc13 [TCIF, tetracyclic isoflavone] | estrogen receptor beta (ERβ) selective transcriptional activation | does not have an antagonistic effect on either receptor | – | – | – |
